Reference: patent US20170183318A1, “AMIDE COMPOUNDS, METHODS FOR PREPARATION, AND USE THEREOF AS AGENTS FOR THE TREATMENT AND PREVENTION OF DISEASES CAUSED BY RNA- AND/OR DNA-CONTAINING VIRUSES, AND CONCOMITANT DISEASES” (OBSCHESTVO S OGRANICHENNOI OTVETSTVENNOSTIYU …, priority 2014, published 2017)
Where two headings read alike, the source gives them in different places. Starred links: 1 amine or outer side, 2 acyl side, 3 side chain; linkers in the order of their positions; H or OH if unused. Residues, ends and D or L forms follow the SMILES beside them. Glutaryl = O=C(CCCC(=O)[*:2])[*:1]

Key:
[1] = system: herpes simplex virus belonging to antigenic type 2; assay: Murine model of experimental herpetic meningoencephalitis (mortality); type: in vivo, white outbred mice; conditions: Mus musculus, po, 336 h
Experimental: In the study, herpes simplex virus belonging to antigenic type 2 was used. White outbred mice weighing 7-8 g were infected i/c (intracerebrally) in a volume of 0.05 ml/mouse comprising a dose of 10LD50. The infectious dose of the virus that caused 100% mortality in mice was 10LD50. Each experimental group comprised 20 mice. Intact animals served as control and were hold in a separate room under the same conditions as the experimental animals. The antiviral activity of the compounds of general formula I was studied by oral administration of the compounds to infected mice once daily at a dose of 30 mg/kg/mouse 24, 48, 72, 96, and 120 hours after infection of the animals with the virus. The mice of the control group were administered placebo (0.2 mL of physiological solution) under the same conditions. The animals were monitored for 14 days after infection by registration the mouse death in the groups.
Each animal was subjected to once-daily observation. The observation included the assessment of general behavior and body condition of animals. The animals were handled according to the International Standards.
The activity of the compounds was evaluated by comparing mortality rates in the groups of animals administered a preparation and placebo.

[2] = Rat model of nasopharyngitis induced by formalin (nasal mucosa changes, cell elements in nasal lavage); type: in vivo; conditions: Wistar rats, 18 mg/kg for 3 days; for Mucous membrane of nasal passages: Without changes (number of animals): number of animals out of n = 10, control 0 of 20; for Mucous membrane of nasal passages: Discharge mucus from the nasal passages (number of animals): number of animals out of n = 10, control 20 of 20
Experimental: Nasopharyngitis was induced by intranasal administration of formalin to each nasal passage of rats.
The administration of formalin to the nasal passages of rats leads to the dissemination of inflammation to adjacent tissues, resulting in a clinical pattern similar to the symptoms of nasopharyngitis in a human.
After an acclimatization period, the following groups were formed: • intact animals administered intragastrically a physiological solution in an amount of 0.2 ml, without induction of nasopharyngitis; • a control group consisted of animals administered intragastrically a physiological solution in an amount of 0.2 ml for 3 days after induction of nasopharyngitis; and • animals administered the studied compounds at a dose of 18 mg/kg for 3 days after induction of nasopharyngitis.
Clinical observation of each animal was performed every day at least twice daily.
The caused pathology was characterized by hyperplasia, increased number of caliciform cells, pronounced infiltration of mononuclear cells and leucocytes, and mucus hyperproduction by submucosal glands.
After euthanasia, the inflammation pattern in the nasal passages and throat was studied in each group of animals. The nasal passages were washed with 5 mL of physiological solution and the score of cell elements were counted in 1 μL.

[3] = system: Coxsackie A2 virus (strain HCXV A2); assay: Antiviral activity against Coxsackie virus in vivo (mortality and life expectancy of infected mice)
Experimental: In the study a trypsin-dependent strain HCXV A2 was used, previously adapted and causing death in mice from Coxsackie virus infection.
The experiment was carried out in white mice weighing 6 to 7 g. The animals were infected intramuscularly with a dose of 0.1 mL/mouse. The used infectious dose causing mortality in mice was 10LD50.
The ability of compounds to provide a therapeutic effect was determined by the mortality rate of HCXV A2 virus-infected mice in the experimental group relative to the group of untreated animals.
The studied compounds and placebo were administered orally according to the treatment regimen. Normal saline solution was administered to mice as placebo. Intact animals served as a negative control and were hold in a separate room under the same conditions as the experimental animals.
For the experiment, groups were formed with 14-15 animals each. Compounds were administered at a dose of 30 mg/kg of body weight. The studied compounds were administered orally once daily for 7 days (first administration was made 24 hours after infection). The animals were monitored for 15 days during which the animals were weighed and the mortality rate was registered every day.

human virus hRSV = assay: Antiviral activity against mouse-adapted RS virus (body weight; viral titer in lungs titrated in Hep-2 cells); type: in vivo, mice; conditions: for hRSV in the lungs of mice, Day 5, lg / hRSV in the lungs of mice, Day 7, lg: 10% lung suspension titrated in Hep-2 cells (TCID); for hRSV in the lungs of mice, Day 5, lg / Body weight of the mice on day 5 after infection with hRSV (M ± SD) / hRSV in the lungs of mice, Day 7, lg / Body weight of the mice on day 7 after infection with hRSV (M ± SD): compounds 30 mg/kg, Ribavirin 40 mg/kg; for Body weight of the mice on day 5 after infection with hRSV (M ± SD) / Body weight of the mice on day 7 after infection with hRSV (M ± SD): orally once daily for 5 days, n = 6; for log reduction at 30 mg/kg: human respiratory syncytial virus, HEp-2, po
Experimental: Antiviral effectiveness of the chemical compounds against RSV in an experimental murine model in vivo was determined for human virus hRSV that was previously adapted to the growth in mouse lungs. The animals were infected with the virus at a dose of 0.5 log TCID50 intranasally under brief ether anesthesia in a volume of 0.05 ml/mouse. The studied compounds were administered orally once daily for 5 days according to the treatment regimen at a dose of 30 mg/kg. The first administration was made 24 hours after infection. Normal saline solution was administered to mice as placebo. Intact animals served as a negative control and were hold in a separate room under the same conditions as the experimental animals. Each experimental group comprised 12 animals.
The antiviral activity of the studied compounds was determined by the efficiency in the prevention of weight loss and by suppression of the reproduction of hRSV in the mouse lungs by measuring a viral titer in the experimental groups relative to the control on days 5 and 7 after infection.
In addition, the therapeutic action of the compounds of general formula I was determined by their ability to suppress the reproduction of hRSV in the mouse lungs on days 5 and 7 after infection. The viral titer was determined by the titration of a 10% lung suspension in Hep-2 cell culture. The result was registered 2 days after the incubation at 37° C. by TCID.

[4] = system: human respiratory syncytial virus (strain A2); assay: Antiviral activity against RS virus in a murine model of suppressed immune system (lung edema); type: in vivo; conditions: Balb/c mice, cyclophosphan-suppressed, RS-virus pneumonia; 30 mg/kg once daily for 5 days; M ± SD, n = 5; scores from possible 4
Experimental: Antiviral activity of the chemical compounds against human respiratory syncytial virus (strain A2, an infectious titer of 5×10^6 TCID50/mL) was assessed in a Balb/c murine model of viral pneumonia. The virus was inoculated to animals intranasally in a volume of 50 μL under brief ether anesthesia. The immune response in animals to RS virus was suppressed by intraperitoneal administration of cyclophosphan at a dose of 100 mg/kg 5 days before infection. The studied compounds were administered according to the treatment regimen once daily at a dose of 30 mg/kg for 5 days, starting 24 hours after infection. The activity of the compounds was determined by a reduction in edema of the lung infected with respiratory syncytial virus, compared to the control, on day 5 after infection.

[5] = 120 h, read-out: Suppression of the reproduction of hRSV in the lungs of mice, Day 5, Δlg
[6] = 168 h, read-out: Suppression of the reproduction of hRSV in the lungs of mice, Day 7, Δlg

Row | Structure (SMILES) | mortality at 30 mg/kg [1] | Mucous membrane of nasal passages: Without changes (number of animals) [2] | Mucous membrane of nasal passages: Discharge mucus from the nasal passages (number of animals) [2] | inhibition in vivo at 30 mg/kg ([3]; Mus musculus, po, 168 h, 30 mg/kg orally once daily for 7 days, vs virus control, read-out: Protective index (%)) | mortality at 30 mg/kg ([3]; Mus musculus, po, 360 h, read-out: Total mortality, %) | Average life expectancy (days), Compared with control ([3]; difference vs virus control, 30 mg/kg orally once daily for 7 days) | Average life expectancy (days), Relative ([3]; mice infected with 10LD50 HCXV A2, 30 mg/kg orally once daily for 7 days) | hRSV in the lungs of mice, Day 5, lg (human virus hRSV) | Body weight of the mice on day 5 after infection with hRSV (M ± SD) (human virus hRSV) | hRSV in the lungs of mice, Day 7, lg (human virus hRSV) | Body weight of the mice on day 7 after infection with hRSV (M ± SD) (human virus hRSV) | log reduction at 30 mg/kg (human virus hRSV; [5]) | log reduction at 30 mg/kg (human virus hRSV; [6]) | Degree of lung edema on day 5 after infection, score [4]
1 | CC(NC(=O)C(Cc1cnc[nH]1)NC(=O)CCCC(=O)O)C(N)=O (stereo not drawn) [Compound 92] (Glutaryl-His-Ala-NH2; configuration not given here) | 25% | 6 | 4 |  |  |  |  |  |  |  |  |  |  | 
2 | O=C(O)CCCC(=O)NCCc1cc[nH]n1 [Compound 15] | 30% | 7 | 3 |  |  |  |  |  |  |  |  |  |  | 
3 | CC(C)(CCC(=O)NCCc1cnc[nH]1)C(=O)O [Compound 44] | 40% | 4 | 6 | 55% | 28.6% | +20.1 days | 32.3 days |  |  |  |  |  |  | 
4 | O=C(O)CCCC(=O)NCCc1cocn1 [Compound 124] | 40% | 7 | 3 |  |  |  |  | 2.46 ± 0.22 lg | 16.43 ± 0.26 | 0.83 ± 0.37 lg | 16.37 ± 0.43 | 2.14 ± 0.22 | 2.97 ± 0.37 | 
5 | O=C(O)CCCC(=O)NCCc1cn[nH]n1 [Compound 126] | 40% | 4 | 6 |  |  |  |  |  |  |  |  |  |  | 
6 | O=C(O)CCCC(=O)NCCc1cnccn1 [Compound 131] | 45% | 5 | 5 |  |  |  |  |  |  |  |  |  |  | 
7 | NCCCC(=O)NCCCc1cccs1 [Compound 100] | 30% | 3 | 7 |  |  |  |  |  |  |  |  |  |  | 
8 | O=C(O)CCCC(=O)NCCc1cscn1 [Compound 121] |  |  |  |  |  |  |  | 3.08 ± 0.47 lg | 16.35 ± 0.20 | 1.50 ± 0.14 lg | 17.38 ± 0.29 | 1.52 ± 0.47 | 2.09 ± 0.22 | 1.30 ± 0.60 score
9 | O=C(O)CCCC(=O)NCCC1=NCCN1 [Compound 3] |  |  |  |  |  |  |  | 3.04 ± 0.42 lg | 16.65 ± 0.28 | 1.46 ± 0.17 lg | 17.32 ± 0.25 | 1.56 ± 0.42 | 2.18 ± 0.28 | 1.6 ± 0.89 score
10 | O=C(O)CCCC(=O)NCCC1CCNCC1 [Compound 7] | 20% | 6 | 4 |  |  |  |  |  | 17.17 ± 0.26 |  | 18.53 ± 0.55 |  |  | 
11 | O=C(O)CCCC(=O)NCCc1cnco1 [Compound 123] |  |  |  |  |  |  |  | 2.50 ± 0.43 lg | 15.87 ± 0.20 | 1.33 ± 0.19 lg | 17.55 ± 0.53 | 2.1 ± 0.43 | 2.62 ± 0.5 | 1.30 ± 0.17 score
12 | O=C(O)CCCC(=O)NCCc1cc[nH]c1 [Compound 120] |  |  |  |  |  |  |  | 3.04 ± 0.47 lg | 16.12 ± 0.27 | 1.50 ± 0.25 lg | 17.22 ± 0.20 | 1.56 ± 0.47 | 2.05 ± 0.25 | 1.05 ± 0.14 score
